Laboratory results from paper PMC8486263 (RSC Advances, 2020).
Values belong to the compound of their own block, whether it stands above or below them.

What was measured:
[1] = tested on: HIV-1 (strain LAI); assay: microbe, parasite or virus in culture; format: cell-based; conditions: Human immunodeficiency virus 1, PBMC, 144 h; HIV-1 LAI, MOI 0.1, PHA/IL-2 stimulated human PBM cells, 6 days; read-out: anti-HIV-1 EC50
Experimental: The assay was performed as described previously,[23a,b] with some modifications described elsewhere.[23c] […] Supernatants were harvested, and HIV-1 RT was quantified. Median effective concentrations (EC50) were determined using described method.[23d]

[2] = tested on: HBV; assay: Antiviral assay against HBV in HepAD38 cells, real-time PCR for HBV DNA; format: cell-based; conditions: Hepatitis B virus, 168 h
Experimental: HepAD38 cells[24] were seeded at 50 000 cells per well in collagen-coated 96-well plates. Test compounds or 3TC (control) were added to HepAD38 cells to a final concentration of 10 μM. Real-time PCR for HBV DNA lasted 7 days. On day 7, total DNA was purified from supernatant using commercially available kit (DNeasy 96 Blood & Tissue kit, Qiagen). The HBV DNA was amplified in a real-time PCR assay using LightCycler 480 (Roche) as described elsewhere.[23c] All samples were tested in triplicate. Analysis: the concentration of compound that inhibited HBV DNA replication by 50% (EC50) was determined by linear regression.

[3] = in vitro; conditions: African green monkey
Experimental: These assays were performed in human PBM, T lymphoblast CEM-CCRF (CEM), African green monkey kidney (Vero) or human liver (HepG2) cells. Results represent means from triplicate wells.
These were performed in […] (PBM), T lymphoblast CEM-CCRF (CEM), African green monkey kidney (Vero) or human liver (HepG2) cells via MTT assay using the CellTiter 96®. Non-Radioactive Cell Proliferation (Promega) kit as previously described.[23c] Cytotoxicity was expressed as the concentration of test compounds that inhibited cell proliferation by 50% (IC50) and calculated using the Chou and Talalay method.[25]

- EC50 [1]: 6 nM
SMILES: Cc1cn([C@H]2C[C@H](N=[N+]=[N-])[C@@H](CO)O2)c(=O)[nH]c1=O [AZT, 3′-azido-3′-deoxythymidine]

SMILES: Nc1ccn([C@@H]2CS[C@H](CO)O2)c(=O)n1 [Lamivudine]
- EC50 ([2]; 7 days, HBV DNA in supernatant, read-out: anti-HBV EC50): < 10 µM
- inhibition at 10 µM ([2]; at 10 μM, day 7): 97%

SMILES: C[C@@H]1C[C@@H]([C@H](O)CC2CC(=O)NC(=O)C2)C(=O)[C@@H](C)C1 [cycloheximide]
- IC50 [3]: 500 nM
